This experiment has as its system DQ0602. Nature of the experiment: DQ0602 peptide competition binding assay (vs Bio-EBV epitope, DELFIA TRF). The conditions noted are these: 40 μM competitor vs 1 μM Bio-EBV, 25 nM DQ0602, pH 4.6, 3 days 37 °C, duplicate, <25% strong, 25–50% weak binder; for %DQ6-EBV Binding (PANDEMRIX motif): Suppl Table 1, motif in Pandemrix; for %DQ6-EBV Binding (X179A motif): Suppl Table 1, reference motif of X179A; for %DQ6-EBV Binding (PH1N1 motif): Suppl Table 1, wild type pH1N1 motif.

Experimental: The reaction was quenched by adding two volumes of neutralization buffer (100 mM Tris-HCl, pH = 8.6, 150 mM NaCl, 1% BSA, 0.5 Nonidet P-40 (IGEPAL CA-630, Sigma), 0.1% NaN3). Monoclonal anti-DQ (SPV-L3) antibodies (Cat# BNUM0200-50, Biotium, Fremont, CA, USA) (1:400 dilution in 100 mM carbonate-bicarbonate buffer, pH = 9.5) were coated onto a high binding 96-well plate (REF# 9018, Corning), and incubated with neutralized reaction for 1–2 h at room temperature (RT). After washing five times with 300 μL/well of wash buffer (phosphate-buffered saline (PBS), 0.05% Tween-20, pH = 7.4), 100 μL/well of Europium (Eu)-labelled streptavidin (Cat# 1244–360, PerkinElmer, Waltham, MA, USA) (1:1000 dilution in PBS, 1% BSA, pH = 7.4) was added and incubated for 1 h at RT. After washing 5 times again with 300 μL/well of wash buffer, DELFIA® time-resolved fluorescence (TRF) intensity was detected using a Tecan Infinite® M1000 after adding 100 μL/well of enhancement solution (Cat# 1244–105, PerkinElmer). Non-specific binding was removed through extensive wash with wash buffer.
A combination of in-vitro and in-silico methods was adopted to address this question. We synthesized 15 mer peptide stretches overlapping by 4mers using the most abundant viral proteins (HA, NA, NP, M1 & PB2) from reference strains (X179A and wild type pH1N1) as a template. […] In this way, a database of experimentally derived peptide binders from the abundant viral proteins was built. Next, we compared the mutated motifs (Table 3) from the vaccines to the reference motifs already tested for DQ0602 binding.

As for QNALNGNGDP[N > D]NMDKAVKLY, the “%DQ6-EBV Binding (PANDEMRIX motif)” value was found to be 6.87%. With NTSLPFQNIH[P]ITIGKCPKY, the “%DQ6-EBV Binding (X179A motif)” value came to 56.53% and the “%DQ6-EBV Binding (PH1N1 motif)” value came to 56.53%. Regarding QGRGVFELSD[E]KAASPIVPS, the “%DQ6-EBV Binding (PANDEMRIX motif)” value stood at 14.93% and the “%DQ6-EBV Binding (X179A motif)” value amounted to 14.93%. With NALNGNGDPN[N]MDKAVKLYR, the “%DQ6-EBV Binding (X179A motif)” value worked out at 32.79%. Turning to MASQGTKRSY[E]QMETGGERQ, the “%DQ6-EBV Binding (PH1N1 motif)” value came out at 71.8%. As to LQRRRFVQNA[L > P]NGNGDPNNM, the “%DQ6-EBV Binding (PANDEMRIX motif)” value is on record as 88.31%. Still for that read-out and setting: with QVYSLIRPNE[N > D]PAHKSQLVW the figure was 35.94%. On the same count and under the same terms, with MASQGTKRSY[E > Q]QMETDGERQ the figure was 78.07%. With DPNNMDKAVK[L > M]YRKLKREIT, the “%DQ6-EBV Binding (PANDEMRIX motif)” value is reported as 71.82%. Take NTSLPFQNIH[P > Q]ITIGKCPKY: the “%DQ6-EBV Binding (PANDEMRIX motif)” value came out at 42.35%. For VGKEFNHLEK[R]IENLNKKVD, the “%DQ6-EBV Binding (X179A motif)” value was 80.71% and the “%DQ6-EBV Binding (PH1N1 motif)” value is listed as 80.71%. Take QRRRFVQNAL[N > D]GNGDPNNMD: the “%DQ6-EBV Binding (PANDEMRIX motif)” value was determined as 77.89%. Regarding RTTIMAAFNG[N > D]TEGRTSDMR, the “%DQ6-EBV Binding (PANDEMRIX motif)” value is reported as 12.48%. Same read-out and setting: the result for NALNGNGDPN[N > D]MDKAVKLYR reads 27.47%. With QVVSLMRPNE[N]PAHKSQLVW, the “%DQ6-EBV Binding (PH1N1 motif)” value was 31.89%. In the case of NNAKEIGNGC[F]EFYHKCDNT, the “%DQ6-EBV Binding (X179A motif)” value worked out at 79.28% and the “%DQ6-EBV Binding (PH1N1 motif)” value came to 79.28%.

Regarding QGRGVFELSD[E]KATNPIVPS, the “%DQ6-EBV Binding (PH1N1 motif)” value is on record as 39.96%.

As for LEVLMEWLKT[R]PILSPLTKG, the “%DQ6-EBV Binding (X179A motif)” value amounted to 116.06%. Turning to MASQGTKRSY[E]QMETDGERQ, the “%DQ6-EBV Binding (X179A motif)” value came to 67.56%. For LEVLMEWLKT[R > I]PILSPLTKG, the “%DQ6-EBV Binding (PANDEMRIX motif)” value is recorded as 51.58%. Turning to QNALNGNGDP[N]NMDKAVKLY, the “%DQ6-EBV Binding (X179A motif)” value is recorded as 6.01%.

Consider NNAKEIGNGC[F > Y]EFYHKCDNT, for which the “%DQ6-EBV Binding (PANDEMRIX motif)” value came to 84.06%. On to DPNNMDKAVK[L]YRKLKREIT, for which the “%DQ6-EBV Binding (X179A motif)” value was determined as 73.65%. DPNNMDRAVK[L]YKKLKREIT: the “%DQ6-EBV Binding (PH1N1 motif)” value is given as 67.01%.

VGKEFNHLEK[R > I]IENLNKKVD: the “%DQ6-EBV Binding (PANDEMRIX motif)” value turned out to be 42.31%.

In the case of LQRRRFVQNA[L]NGNGDPNNM, the “%DQ6-EBV Binding (X179A motif)” value is 83.1% and the “%DQ6-EBV Binding (PH1N1 motif)” value was found to be 83.1%. As to QRRRFVQNAL[N]GNGDPNNMD, the “%DQ6-EBV Binding (X179A motif)” value stood at 66.28% and the “%DQ6-EBV Binding (PH1N1 motif)” value was determined as 66.28%. QVYSLIRPNE[N]PAHKSQLVW: the “%DQ6-EBV Binding (X179A motif)” value is given as 48.19%.

For the substance LEALMEWLKT[R]PILSPLTKG, the “%DQ6-EBV Binding (PH1N1 motif)” value is given as 31.61%.

As to NALNGNGDPN[N]MDRAVKLYK, the “%DQ6-EBV Binding (PH1N1 motif)” value is listed as 21.69%.

For the origin of these results see paper PMC7712488 (Vaccines, 2020).
